Experimental data from paper PMC6237811, “MutT homologue 1 (MTH1) catalyzes the hydrolysis of mutagenic O6-methyl-dGTP” (Nucleic Acids Research, 2018).

Key:
Format in all cases: biochemical
[1] = molecular target: Arabidopsis thaliana NUDT1 (atNUDT1, atNUDX1) (Arabidopsis thaliana, UniProt Q9CA40); assay: hydrolysis by […] purified enzyme, PPiLight assay, […] substrate
[2] = molecular target: T1, human MTH1 (hMTH1, NUDT1) (Homo sapiens, UniProt P36639); assay: Michaelis-Menten kinetics of hydrolysis by purified MTH1 (PPiLight); HPLC and LC-MS of product
[3] = molecular target: T2, rat MTH1 (rnMTH1, rnNUDT1) (Rattus norvegicus, UniProt P53369); assay: hydrolysis by […] purified enzyme, PPiLight assay, […] substrate
T2 construct: gene Nudt1

[4] = molecular target: T3, zebrafish MTH1 (zfMTH1) (Danio rerio, UniProt Q7ZWC3); assay: hydrolysis by purified zfMTH1, malachite green and PPiLight assays
T3 construct: gene nudt1

[5] = molecular target: T4, mouse MTH1 (mmMTH1, mmNUDT1) (Mus musculus, UniProt P53368); assay: hydrolysis by […] purified enzyme, PPiLight assay, […] substrate
T4 construct: gene Nudt1

[6] = molecular target: T1, human MTH1 (hMTH1, NUDT1); assay: Michaelis-Menten kinetics of hydrolysis by purified MTH1 (PPiLight)

Chain of Arabidopsis thaliana NUDT1 (atNUDT1, atNUDX1) (Q9CA40 2-147): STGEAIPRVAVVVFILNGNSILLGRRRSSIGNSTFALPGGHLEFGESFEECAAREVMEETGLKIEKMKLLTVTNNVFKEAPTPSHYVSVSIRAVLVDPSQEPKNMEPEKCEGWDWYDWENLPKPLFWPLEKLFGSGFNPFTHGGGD
T3 sequence (Q7ZWC3 whole entry): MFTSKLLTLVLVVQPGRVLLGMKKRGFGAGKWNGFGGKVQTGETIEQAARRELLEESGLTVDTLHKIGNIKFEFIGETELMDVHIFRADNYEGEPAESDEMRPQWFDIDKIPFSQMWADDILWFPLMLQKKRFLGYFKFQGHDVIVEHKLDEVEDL

Km [2] [µM] | Km [6] [µM] | SMILES | hydrolysis by 1.5 nM purified enzyme, PPiLight assay, 75 μM substrate [1] | hydrolysis by 1.5 nM purified enzyme, PPiLight assay, 75 μM substrate [3] | hydrolysis by purified zfMTH1, malachite green and PPiLight assays [4] | hydrolysis by 1.5 nM purified enzyme, PPiLight assay, 75 μM substrate [5]
15.6 ± 0.2 |  | COc1nc(N)nc2c1ncn2[C@H]1C[C@H](O)[C@@H](COP(=O)(O)OP(=O)(O)OP(=O)(O)O)O1 [O6-methyl-dGTP] | MTH1 homologues from all tested species but E. coli were found to catalyze the hydrolysis of O6-methyl-dGTP | MTH1 homologues from all tested species but E. coli were found to catalyze the hydrolysis of O6-methyl-dGTP | The zfMTH1 enzyme displays considerable activity with O6-methyl-dGTP with a clear preference over dGTP | MTH1 homologues from all tested species but E. coli were found to catalyze the hydrolysis of O6-methyl-dGTP
 | 236 ± 44 | COc1nc(N)nc2c1ncn2[C@@H]1O[C@H](COP(=O)(O)OP(=O)(O)OP(=O)(O)O)[C@@H](O)[C@H]1O [O6-methyl-GTP] |  |  |  | 
